# Reference: US8183284B2, “Compositions for reducing the incidence of drug induced arrhythmia” (Warner Chilcott Company, LLC, priority 2005, dated 2012)
# Assay: Clinical trials of oral azimilide: incidence of torsades de pointes (TdP)
# Type: in vivo, patients
# Protocol: Clinical trials are conducted where 5375 patients receive oral doses of azimilide. Patients are administered azimilide using a 3-day, twice daily loading regimen of 150-250 mg/day followed by a daily maintenance regimen (75-125 mg/day) of ½ of the loading dose, or are given daily azimilide (75, 100 or 125 mg/day) without a loading regimen. Overall about 75% of the patients are men and about 25% are women. Two cases of TdP are found in placebo-assigned patients and 54 azimilide-associated cases of TdP. Lack of aspirin use or lack of statin use is more frequent in azimilide patients with TdP. A total of 1191 (22%) patients (243 [16%] females and 948 [25%] males) are taking statins and aspirin as concomitant medication. Among the 54 patients (30 females and 24 males) who experienced TdP, 35% are on aspirin, 20% are on statins and only 11% are taking both a statin and aspirin as concomitant medication.
smiles,measurement,setting,value
CN1CCN(CCCCN2C(=O)CN(/N=C/c3ccc(-c4ccc(Cl)cc4)o3)C2=O)CC1 [azimilide],azimilide-associated cases of TdP,"5375 patients receiving oral azimilide 75-125 mg/day, with or without 3-day loading regimen of 150-250 mg/day",54 cases
same,share of patients who experienced TdP that are on aspirin,"among the 54 patients (30 females, 24 males) who experienced TdP, concomitant aspirin",35%
same,share of patients who experienced TdP that are on statins,"among the 54 patients who experienced TdP, concomitant statins",20%
same,share of patients who experienced TdP that are taking both a statin and aspirin,"among the 54 patients who experienced TdP, overall 1191 (22%) of patients take statins and aspirin",11%
